From ChEMBL document CHEMBL1212812, “Multi-target spectral moment QSAR versus ANN for antiparasitic drugs against different parasite species” (Bioorg Med Chem, 2010)

Columns and labels:
Assay type in all cases: functional, organism-based
Leishmania donovani = test: Antimicrobial activity against Leishmania donovani
Entamoeba histolytica = test: Antimicrobial activity against Entamoeba histolytica
Plasmodium falciparum = test: Antimicrobial activity against Plasmodium falciparum

| Structure (SMILES) | IC50 (Leishmania donovani) [µM] | IC50 (Entamoeba histolytica) [µM] | IC50 (Plasmodium falciparum) [µM] |
| --- | --- | --- | --- |
| C[C@@H]1CC[C@H]2[C@@H](CCCc3ccc(Cl)cc3)CO[C@@H]3O[C@@]4(C)CC[C@@H]1[C@]32OO4 | 5 |  |  |
| C[C@@H]1CC[C@H]2[C@@H](CCCc3cccc(Cl)c3)CO[C@@H]3O[C@@]4(C)CC[C@@H]1[C@]32OO4 | 4 |  |  |
| C[C@@H]1CC[C@H]2[C@@H](CCCc3cc(F)cc(F)c3)C(=O)O[C@@H]3O[C@@]4(C)CC[C@@H]1[C@]32OO4 | 50 |  |  |
| C[C@@H]1CC[C@H]2[C@@H](CCCc3ccc(C(F)(F)F)cc3)C(O)O[C@@H]3O[C@@]4(C)CC[C@@H]1[C@]32OO4 (some centres not stated) | 3 |  |  |
| CC[C@H]1C(=O)O[C@@H]2O[C@@]3(C)CC[C@H]4[C@H](C)CC[C@@H]1[C@@]24OO3 | 61 |  |  |
| CCCC[C@H]1C(=O)O[C@@H]2O[C@@]3(C)CC[C@H]4[C@H](C)CC[C@@H]1[C@@]24OO3 | 12 |  |  |
| C[C@@H]1CC[C@H]2[C@@H](CCCc3ccc(Cl)cc3)C(=O)O[C@@H]3O[C@@]4(C)CC[C@@H]1[C@]32OO4 | 12 |  |  |
| CCC[C@@]12CC[C@H]3[C@H](C)CC[C@H]4CC(=O)O[C@H](O1)[C@]43OO2 | 41 |  |  |
| CCCCCNC(P(=O)(O)O)P(=O)(O)O [(PENTYLAMINO)METHYLENEDIPHOSPHONIC ACID] |  | 200 | 5 |
| O=P(O)(O)C(NC1CCC1)P(=O)(O)O [(CYCLOBUTYLAMINO)METHYLENEDIPHOSPHONIC ACID] |  | 200 | 200 |
| O=P(O)(O)CC(c1ccccn1)P(=O)(O)O (configuration not stated) |  | 200 | 200 |
| CN(C)CCC(O)(P(=O)(O)O)P(=O)(O)O [OLPADRONIC ACID] |  | 200 | 200 |
| O=P(O)(O)C(Nc1ncccc1OCc1ccccc1)P(=O)(O)O |  | 200 | 200 |
| O=P(O)(O)C(Nc1cc(Cl)cc(Cl)c1)P(=O)(O)O [(3,5-DICHLOROPHENYLAMINO)METHYLENEDIPHOSPHONIC ACID] |  | 200 | 200 |
| O=P(O)(O)C(O)(CCCCNCCCCc1ccccc1)P(=O)(O)O |  | 21 | 200 |
| O=P(O)(O)C(Nc1ccc(Br)cn1)P(=O)(O)O |  | 44 | 200 |
| C=P(O)(O)C(Nc1c(F)c(F)c(F)c(F)c1F)P(=O)(O)O (configuration not stated) |  | 200 | 200 |
| CCCCCC(C)CNC(P(=O)(O)O)P(=O)(O)O (configuration not stated) |  | 65 | 103 |
| O=P(O)(O)C(N1CCCCCC1)P(=O)(O)O [N-(HEXAMETHYLENEIMINO)METHYLENEBISPHOSPHONIC ACID] |  | 200 | 200 |
| C[C@@H]1CC[C@H]2[C@@H](CCCc3cccc(F)c3)C(=O)O[C@@H]3O[C@@]4(C)CC[C@@H]1[C@]32OO4 | 4 |  |  |
| O=P(O)(O)C(N1CCSCC1)P(=O)(O)O [THIOMORPHOLINOMETHYLENEDIPHOSPHONIC ACID] |  | 200 | 200 |
| CCCCCN(C)CCC(O)(P(=O)(O)O)P(=O)(O)O [IBANDRONIC ACID] |  | 54 | 59 |
| CSc1ccc(CCC[C@H]2C(=O)O[C@@H]3O[C@@]4(C)CC[C@H]5[C@H](C)CC[C@@H]2[C@@]35OO4)cc1 | 1 |  |  |
| O=P(O)(O)CC(c1ccncc1)P(=O)(O)O (configuration not stated) |  | 200 | 200 |
| CCOP(=O)(OCC)C(Nc1cc(C)ccn1)P(=O)(OCC)OCC |  | 200 | 200 |
| O=P(O)(O)C(NCCc1ccccc1)P(=O)(O)O [(PHENETHYLAMINO)METHYLENEDIPHOSPHONIC ACID] |  | 200 | 200 |

| Structure (SMILES) | IC50 (Leishmania donovani) [µM] | IC50 (Entamoeba histolytica) [µM] | IC50 (Plasmodium falciparum) [µM] |
| --- | --- | --- | --- |
| CCCN(CCC)c1c([N+](=O)[O-])cc(S(=O)(=O)N(c2ccccc2)c2ccccc2)cc1[N+](=O)[O-] | 100 |  |  |
| C[C@@H]1CC[C@H]2[C@@H](CCCC(F)(F)F)C(=O)O[C@@H]3O[C@@]4(C)CC[C@@H]1[C@]32OO4 | 79 |  |  |
| CCCC[C@H]1C(=O)O[C@@H]2O[C@@]3(CC)CC[C@H]4[C@H](C)CC[C@@H]1[C@@]24OO3 | 36 |  |  |
| O=P(O)(O)C(Nc1ccccn1)P(=O)(O)O |  | 200 | 200 |
| CN(CCCCc1ccccc1)CCCCC(O)(P(=O)(O)O)P(=O)(O)O |  | 23 | 3 |
| CCCCCc1ccc(NC(P(=O)(O)O)P(=O)(O)O)cc1 |  | 132 | 46 |
| O=P(O)(O)C(Nc1cccc(-c2ccccc2)c1)P(=O)(O)O |  | 7 | 200 |
| O=P(O)(O)C(CNc1ccncc1)P(=O)(O)O |  | 200 | 200 |
| CC(C)CNC(P(=O)(O)O)P(=O)(O)O [(ISOBUTYLAMINO)METHYLENEDIPHOSPHONIC ACID] |  | 200 | 200 |
| NCCCCC(O)(P(=O)(O)O)P(=O)(O)O |  | 200 | 200 |
| Nc1ncnc2c1ncn2[C@@H]1O[C@H](C[C@@H](N)CC[C@H](N)C(=O)O)[C@@H](O)[C@H]1O [SINEFUNGIN] | 1 |  |  |
| CCOC(=O)CC[C@@]12CC[C@H]3[C@H](C)CC[C@H]4CC(=O)O[C@H](O1)[C@]43OO2 | 31 |  |  |
| C[C@@H]1CC[C@H]2[C@@H](CCCc3ccc(Cl)c(Cl)c3)CO[C@@H]3O[C@@]4(C)CC[C@@H]1[C@]32OO4 | 2 |  |  |
| Cc1cccnc1NC(P(=O)(O)O)P(=O)(O)O |  | 200 | 200 |
| C=CC[C@H]1C(=O)O[C@@H]2O[C@@]3(C)CC[C@H]4[C@H](C)CC[C@@H]1[C@@]24OO3 | 18 |  |  |
| CC(N)CC(O)(P(=O)(O)O)P(=O)(O)O (configuration not stated) |  | 200 | 200 |
| CCCCCCCCCCCCCCCCCC(O)(P(=O)(O)O)P(=O)(O)O |  | 200 | 200 |
| O=P(O)(O)CC(c1cccnc1)P(=O)(O)O (configuration not stated) |  | 200 | 200 |
| O=P(O)(O)C(O)(CCc1cccnc1)P(=O)(O)O |  | 200 | 200 |
| CCCNC(P(=O)(O)O)P(=O)(O)O [(PROPYLAMINO)METHYLENEDIPHOSPHONIC ACID] |  | 200 | 200 |
| NCCC(O)(P(=O)(O)O)P(=O)(O)O [PAMIDRONIC ACID] |  | 200 | 200 |
| O=c1ncnc2n([C@H]3O[C@@H](CO)[C@H](O)[C@@H]3O)[nH]cc1-2 [ALLOPURINOL RIBOSIDE] | 4 |  |  |
| NCCCCCC(O)(P(=O)(O)O)P(=O)(O)O [NERIDRONIC ACID] |  | 200 | 200 |
| CCCN(CCC)C(P(=O)(O)O)P(=O)(O)O [(DIPROPYLAMINO)METHYLENEDIPHOSPHONIC ACID] |  | 200 | 200 |
| C[C@@H]1CC[C@H]2CC(=O)O[C@@H]3O[C@@]4(C)CC[C@@H]1[C@@]23OO4 | 242 |  |  |
| COc1ccc(CCC[C@H]2C(=O)O[C@@H]3O[C@@]4(C)CC[C@H]5[C@H](C)CC[C@@H]2[C@@]35OO4)cc1 | 12 |  |  |

| Structure (SMILES) | IC50 (Leishmania donovani) [µM] | IC50 (Entamoeba histolytica) [µM] | IC50 (Plasmodium falciparum) [µM] |
| --- | --- | --- | --- |
| NCCCC(O)(P(=O)(O)O)P(=O)(O)O [ALENDRONIC ACID] |  | 200 | 200 |
| O=P(O)(O)C(O)(C1CCC1)P(=O)(O)O [CYCLOBUTYL(HYDROXY)METHYLENEDIPHOSPHONIC ACID] |  | 200 | 200 |
| C[C@@H]1CC[C@H]2[C@@H](CCCc3ccc(Cl)cc3)C(O)O[C@@H]3O[C@@]4(C)CC[C@@H]1[C@]32OO4 (some centres not stated) | 5 |  |  |
| Cc1csc(NC(P(=O)(O)O)P(=O)(O)O)n1 |  | 200 | 5 |
| C[C@@H]1CC[C@H]2[C@@H](CCCc3ccc(C(F)(F)F)cc3)CO[C@@H]3O[C@@]4(C)CC[C@@H]1[C@]32OO4 | 2 |  |  |
| CCC[C@H]1C(=O)O[C@@H]2O[C@@]3(C)CC[C@H]4[C@H](C)CC[C@@H]1[C@@]24OO3 | 17 |  |  |
| O=P(O)(O)C(Nc1ncc(Br)cc1Br)P(=O)(O)O |  | 29 | 200 |
| CCCN(CCC)c1c([N+](=O)[O-])cc(S(=O)(=O)Nc2cc(Cl)cc(Cl)c2)cc1[N+](=O)[O-] | 4 |  |  |
| CN(CCCc1ccccc1)CCCC(O)(P(=O)(O)O)P(=O)(O)O |  | 45 | 23 |
| Cc1ccnc(NC(P(=O)(O)O)P(=O)(O)O)c1 |  | 200 | 200 |
| C[C@@H]1CC[C@H]2[C@H](CCCc3ccccc3)C(=O)O[C@@H]3O[C@@]4(C)CC[C@@H]1[C@]32OO4 | 45 |  |  |
| CCCC[C@H]1C(=O)O[C@@H]2O[C@@]3(CCCCc4ccccc4)CC[C@H]4[C@H](C)CC[C@@H]1[C@@]24OO3 | 5 |  |  |
| Nc1ccc(CC(O)(P(=O)(O)O)P(=O)(O)O)cc1 |  | 200 | 200 |
| O=P(O)(O)C(NC1CCCCCC1)P(=O)(O)O [INCADRONIC ACID] |  | 200 | 200 |
| O=P(O)(O)C(O)(C1CCCCC1)P(=O)(O)O [CYCLOHEXYL(HYDROXY)METHYLENEDIPHOSPHONIC ACID] |  | 200 | 200 |
| CCCCN(CCCC)c1c([N+](=O)[O-])cc(S(=O)(=O)Nc2ccccc2)cc1[N+](=O)[O-] | 3 |  |  |
| O=P(O)(O)C(O)(Cc1ccccc1)P(=O)(O)O |  | 200 | 8 |
| O=P(O)(O)C(O)(Cc1c[nH]cn1)P(=O)(O)O |  | 200 | 200 |
| CCc1cccc(NC(P(=O)(O)O)P(=O)(O)O)c1 |  | 200 | 200 |
| O=P(O)(O)C(Nc1cccnc1Cl)P(=O)(O)O |  | 200 | 200 |
| O=P(O)(O)C(Nc1ccc2c(c1)CCC2)P(=O)(O)O |  | 200 | 200 |
| CCCCCCc1ccc(NC(P(=O)(O)O)P(=O)(O)O)cc1 |  | 36 | 103 |
| CCCCNC(P(=O)(O)O)P(=O)(O)O [(BUTYLAMINO)METHYLENEDIPHOSPHONIC ACID] |  | 200 | 200 |
| O=C(O)c1cn(C2CC2)c2cc(N3CCN(CC(P(=O)(O)O)P(=O)(O)O)CC3)c(F)cc2c1=O |  | 200 | 200 |
| O=P(O)(O)C(N(C1CCCCC1)C1CCCCC1)P(=O)(O)O [(DICYCLOHEXYLAMINO)METHYLENEDIPHOSPHONIC ACID] |  | 200 | 200 |
